Drawing on patent US10787444B2, “Compounds for the modulation of myc activity” (Syros Pharmaceuticals, Inc., priority 2015, dated 2020), this text covers IC50 for 17 compounds.

Structures are written as SMILES. Like-named read-outs stand apart in the source and are kept apart here.

One experiment addresses T1, c-Myc/Max/Ebox DNA (Homo sapiens, UniProt P01106).
T1 construct: his6 (cleaved yes)
Kind of experiment: c-Myc/Max/Ebox DNA AlphaScreen Assay. The experiment is classed as binding. To be noted: Table 2, compounds of FIG. 1; calculated IC50 class. Here is the method: Compounds of the invention were assayed for c-Myc/Max/EBox activity as described in the following protocol. Human his6-c-Myc and his6-Max were used with biotinylated DNA containing a single Ebox sequence (biotin[…]) purchased from MWG Operon. Free c-Myc was generated from his6-c-Myc through thrombin cleavage of the his6 tag. For 384-well plate assays, 10 μL of a 2× solution of free c-Myc (20 nM final), Ni^2+ coated Acceptor Beads (25 μg/ml final), and biotinylated Ebox oligo (10 nM final) were added to 384-well plates with a Biotek EL406 liquid handler. 50 nL of compounds from stock plates were added by pin transfer using a Janus Workstation (PerkinElmer), allowing the compounds to interact with c-Myc prior to c-Myc binding with Max. In the current assay, DMSO was not allowed to exceed 2% v/v of the assay. 10 μl of 2× master mix containing streptavidin-coated donor beads (25 μg/ml final) and his6-Max (5 nM) were added. AlphaScreen measurements were performed on an Envision plate reader (PerkinElmer) utilizing the manufacturer's protocol.
Both master mixes were made in room temperature assay buffer (50 mM HEPES, 150 mM NaCl, 0.2% w/v BSA, 0.02% w/v Tween20, 40 μg/ml glycogen, 500 μM DTT, pH 8.0, wherein both DTT and glycogen were added fresh). Alpha beads were added to respective master solutions. All subsequent steps were performed in low light conditions. Solution 1:2× solution of components with final concentrations of c-Myc Ni-coated Acceptor Beads (25 μg/ml), and biotinylated Ebox oligo (10 nM). Solution 2:2× solution of streptavidin-coated donor beads (25 μg/ml final) and his6-Max 10 μL. […] 50 nL of compounds from stock plates were added by pin transfer using a Janus Workstation. Solution 2 (10 μl) was added with the liquid handler. Plates were sealed with foil to block light exposure and prevent evaporation. Plates were very briefly centrifuged followed by 2 hour incubation. […] Excitation was at 680 nm for donor bead release of singlet oxygen and emission was read with a bandpass filter from 520-620 nm.

Experiment [1] relates to human small lung cancer cell line H2171. Description: Cell Viability Assay (ATPlite). The experiment is classed as cell-based. To be noted: Table 2, compounds of FIG. 1, H2171 cells, three days, ATPlite, calculated IC50 class, read-out: H2171 Activity. Here is the method:
Compounds of the invention were assayed for cell viability using the human small lung cancer cell line H2171 as described in the following protocol. Cells were counted and adjusted to 20,000 cells/mL. Using a Biotek EL406, 50 μL of cells in media were distributed into 384 well white plates from Thermo. Immediately after plating, compound in DMSO was distributed to plates. Compounds were added to plates using a 50 nL 384 well pin transfer manifold on a Janus workstation. Stocks were arrayed in 10 point dose response in DMSO stock in 384 well Greiner compound plates. After the addition of compounds, plates were incubated for three days in a 37° C. incubator. Cell viability was read out using ATPlite from Perkin Elmer. Lyophilized powder was resuspended in lysis buffer and diluted 1:2 with deionized water. 25 μL of this solution was added to each well using the Biotek liquid handler. Plates were incubated for 15 minutes at room temperature before signal was read on an Envision Plate Reader. The data from this assay are summarized in Tables 2 and 3 below (H2171 activity).

T1 sequence (P01106 whole entry): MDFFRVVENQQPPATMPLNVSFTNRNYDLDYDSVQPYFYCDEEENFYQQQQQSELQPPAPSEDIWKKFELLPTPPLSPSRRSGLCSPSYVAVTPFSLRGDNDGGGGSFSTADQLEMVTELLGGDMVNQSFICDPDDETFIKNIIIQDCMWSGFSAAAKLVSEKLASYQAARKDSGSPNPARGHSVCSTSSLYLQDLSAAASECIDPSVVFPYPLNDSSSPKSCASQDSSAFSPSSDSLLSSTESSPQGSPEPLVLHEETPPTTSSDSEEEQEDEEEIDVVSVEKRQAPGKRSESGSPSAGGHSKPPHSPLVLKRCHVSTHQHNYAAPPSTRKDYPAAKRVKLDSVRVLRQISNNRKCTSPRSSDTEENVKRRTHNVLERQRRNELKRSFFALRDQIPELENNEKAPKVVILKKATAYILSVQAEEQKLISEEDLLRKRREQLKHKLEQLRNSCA

Turning to `COCCNCCC(=O)Nc1sc2c(c1-c1nc3cc(-c4ccncc4)ccc3s1)CC(C)NC2C` (single isomer, unassigned) [Compound 523, N-(5,7-dimethyl-3-(5-(pyridin-4-yl)benzo[d]thiazol-2-yl)-4,5,6,7-tetrahydrothieno[2,3-c]pyridin-2-yl)-3-((2-methoxyethyl)amino)propanamide], the IC50 at c-Myc/Max/Ebox DNA is 1000 to 10000 nM; in experiment [1], 300 to 1000 nM.

Consider `COCCNCCC(=O)Nc1sc2c(c1-c1nc3cc(-c4cccnc4)ccc3s1)CC(C)NC2C` (single isomer, unassigned) [Compound 524, N-(5,7-Dimethyl-3-(5-(pyridin-3-yl)benzo[d]thiazol-2-yl)-4,5,6,7-tetrahydrothieno[2,3-c]pyridin-2-yl)-3-((2-methoxyethyl)amino)propanamide], for which the IC50 is < 300 nM at c-Myc/Max/Ebox DNA and 300 to 1000 nM in experiment [1] (Homo sapiens, NCI-H2171, 72 h).

On to `COCCNCCC(=O)Nc1sc2c(c1-c1nc3cc(-c4cccnc4)ccc3s1)CC(C)NC2C` (single isomer, unassigned) [Compound 525, N-(5,7-Dimethyl-3-(5-(pyridin-3-yl)benzo[d]thiazol-2-yl)-4,5,6,7-tetrahydrothieno[2,3-c]pyridin-2-yl)-3-((2-methoxyethyl)amino)propanamide], for which the IC50 (on c-Myc/Max/Ebox DNA; in experiment [1]) was < 300 nM throughout.

On to `COCCNCCC(=O)Nc1sc2c(c1-c1nc3cc(-c4cccnc4)ccc3s1)CC(C)NC2C` (single isomer, unassigned) [Compound 526, N-(5,7-Dimethyl-3-(5-(pyridin-3-yl)benzo[d]thiazol-2-yl)-4,5,6,7-tetrahydrothieno[2,3-c]pyridin-2-yl)-3-((2-methoxyethyl)amino)propanamide], for which the figures for the IC50 (at c-Myc/Max/Ebox DNA; in experiment [1]) were 1000 to 10000 nM and 300 to 1000 nM, respectively.

In the case of `COCCNCCC(=O)Nc1sc2c(c1-c1nc3ccc(-c4cccnc4)cc3s1)CC(C)NC2C` (single isomer, unassigned) [Compound 527, N-(5,7-Dimethyl-3-(6-(pyridin-3-yl)benzo[d]thiazol-2-yl)-4,5,6,7-tetrahydrothieno[2,3-c]pyridin-2-yl)-3-((2-methoxyethyl)amino)propanamide], the IC50 at c-Myc/Max/Ebox DNA was 300 to 1000 nM; in experiment [1], < 300 nM.

For the compound `COCCNCCC(=O)Nc1sc2c(c1-c1nc3ccc(-c4cccnc4)cc3s1)CC(C)NC2C` (single isomer, unassigned) [Compound 528, N-(5,7-Dimethyl-3-(6-(pyridin-3-yl)benzo[d]thiazol-2-yl)-4,5,6,7-tetrahydrothieno[2,3-c]pyridin-2-yl)-3-((2-methoxyethyl)amino)propanamide], the IC50 (at c-Myc/Max/Ebox DNA; in experiment [1]) was 300 to 1000 nM each time.

Take `CCC1Cc2c(sc(NC(=O)CCNCCOC)c2-c2nc3ccccc3s2)C(CC)N1` (single isomer, unassigned) [Compound 536, N-(3-(Benzo[d]thiazol-2-yl)-5,7-diethyl-4,5,6,7-tetrahydrothieno[2,3-c]pyridin-2-yl)-3-((2-methoxyethyl)amino)propanamide]: the IC50 is 300 to 1000 nM on c-Myc/Max/Ebox DNA and < 300 nM in experiment [1] (Homo sapiens, NCI-H2171, 72 h).

Consider `CCC1Cc2c(sc(NC(=O)CCNCCOC)c2-c2nc3ccccc3s2)C(CC)N1` (single isomer, unassigned) [Compound 537, N-(3-(Benzo[d]thiazol-2-yl)-5,7-diethyl-4,5,6,7-tetrahydrothieno[2,3-c]pyridin-2-yl)-3-((2-methoxyethyl)amino)propanamide], for which the IC50 at c-Myc/Max/Ebox DNA was > 10000 nM; in experiment [1] it was < 300 nM.

Regarding `COCCNCCC(=O)Nc1sc2c(c1-c1nc3cc(F)ccc3s1)CC(C)NC2C` (single isomer, unassigned) [Compound 544, N-(3-(5-Fluorobenzo[d]thiazol-2-yl)-5,7-dimethyl-4,5,6,7-tetrahydrothieno[2,3-c]pyridin-2-yl)-3-((2-methoxyethyl)amino)propanamide], the IC50 on c-Myc/Max/Ebox DNA was < 300 nM; in experiment [1] (Homo sapiens, NCI-H2171, 72 h) it was < 300 nM.

As to `COCCNCCC(=O)Nc1sc2c(c1-c1nc3cc(F)ccc3s1)CC(C)NC2C` (single isomer, unassigned) [Compound 545, N-(3-(5-Fluorobenzo[d]thiazol-2-yl)-5,7-dimethyl-4,5,6,7-tetrahydrothieno[2,3-c]pyridin-2-yl)-3-((2-methoxyethyl)amino)propanamide], the IC50 (on c-Myc/Max/Ebox DNA; in experiment [1]) was < 300 nM in each case.

Take `COCCNCCC(=O)Nc1sc2c(c1-c1nc3cc(F)ccc3s1)CC(C)NC2C` (single isomer, unassigned) [Compound 546, N-(3-(5-Fluorobenzo[d]thiazol-2-yl)-5,7-dimethyl-4,5,6,7-tetrahydrothieno[2,3-c]pyridin-2-yl)-3-((2-methoxyethyl)amino)propanamide]: the IC50 is > 10000 nM at c-Myc/Max/Ebox DNA and < 300 nM in experiment [1].

For `COCCNCCC(=O)Nc1sc2c(c1-c1nc3cc(F)ccc3s1)CC(C)NC2C` (single isomer, unassigned) [Compound 547, N-(3-(5-Fluorobenzo[d]thiazol-2-yl)-5,7-dimethyl-4,5,6,7-tetrahydrothieno[2,3-c]pyridin-2-yl)-3-((2-methoxyethyl)amino)propanamide], the IC50 was 1000 to 10000 nM at c-Myc/Max/Ebox DNA and < 300 nM in experiment [1].

Turning to `COCCNCCC(=O)Nc1sc2c(c1-c1nc3cc(-c4ccncc4)ccc3s1)CCNC2C` (single isomer, unassigned) [Compound 548, 3-((2-Methoxyethyl)amino)-N-(7-methyl-3-(5-(pyridin-4-yl)benzo[d]thiazol-2-yl)-4,5,6,7-tetrahydrothieno[2,3-c]pyridin-2-yl)propanamide], the IC50 (at c-Myc/Max/Ebox DNA; in experiment [1]) was < 300 nM in each case.

Turning to `COCCNCCC(=O)Nc1sc2c(c1-c1nc3cc(-c4ccncc4)ccc3s1)CC(C)NC2` (single isomer, unassigned) [Compound 549, 3-((2-Methoxyethyl)amino)-N-(5-methyl-3-(5-(pyridin-4-yl)benzo[d]thiazol-2-yl)-4,5,6,7-tetrahydrothieno[2,3-c]pyridin-2-yl)propanamide], the IC50 on c-Myc/Max/Ebox DNA is < 300 nM; in experiment [1] (Homo sapiens, NCI-H2171, 72 h) it was < 300 nM.

For the compound `COCCNCCC(=O)Nc1sc2c(c1-c1nc3cc(C(F)(F)F)ccc3s1)CC(C)NC2` (single isomer, unassigned) [Compound 550, 3-((2-Methoxyethyl)amino)-N-(5-methyl-3-(5-(trifluoromethyl)benzo[d]thiazol-2-yl)-4,5,6,7-tetrahydrothieno[2,3-c]pyridin-2-yl)propanamide], the IC50 on c-Myc/Max/Ebox DNA is < 300 nM; in experiment [1] (Homo sapiens, NCI-H2171, 72 h), < 300 nM.

For `COCCNCCC(=O)Nc1sc2c(c1-c1nc3cc(C(F)(F)F)ccc3s1)CC(C)NC2` (single isomer, unassigned) [Compound 551, 3-((2-Methoxyethyl)amino)-N-(5-methyl-3-(5-(trifluoromethyl)benzo[d]thiazol-2-yl)-4,5,6,7-tetrahydrothieno[2,3-c]pyridin-2-yl)propanamide], the IC50 (at c-Myc/Max/Ebox DNA; in experiment [1]) was < 300 nM throughout.

For `COCCNCCC(=O)Nc1sc2c(c1-c1nc3cc(-c4cnn(C)c4)ccc3s1)CC(C)NC2C` (single isomer, unassigned) [Compound 564, N-(5,7-Dimethyl-3-(5-(1-methyl-1H-pyrazol-4-yl)benzo[d]thiazol-2-yl)-4,5,6,7-tetrahydrothieno[2,3-c]pyridin-2-yl)-3-((2-methoxyethyl)amino)propanamide], the IC50 at c-Myc/Max/Ebox DNA was < 300 nM; in experiment [1] (Homo sapiens, NCI-H2171, 72 h), < 300 nM.
